The subject of assay [1] is Nucleic Acid. The experiment in a line: Inhibitory concentration against cell-free bacterial transcription / translation (T/T) assay. Format: functional.
Assay [2] deals with Ribosomal RNA A-site. Description: Dissociation constant against 16S rRNA A-site. Format: nucleic-acid assay.

A word on the IC50: it is the point on the concentration scale where inhibition reaches its midpoint. A higher IC50 goes with a need for much substance. As a reminder, the Kd is the constant that tells how readily two partners part at equilibrium. A higher Kd goes with a looser complex.

In the case of `NCCCNCCO[C@H]1C(O)[C@@H](OCSc2ccnc3cc(C(F)(F)F)ccc23)C(N)C[C@H]1N` (stereo not given in full), the concentration for half-maximal inhibition (IC50) in assay [1] stood at 15 µM. Moreover, the Kd in assay [2] is 1.5 µM.
As for `COc1ccc(CO[C@H]2C(N)C[C@@H](N)[C@@H](O)C2O)cc1` (stereo not given in full), the half-maximal inhibitory concentration (IC50) in assay [1] is above 50 µM. Moreover, binding in assay [2] was characterised by a dissociation constant (Kd) of 315 µM.
Take `COc1ccc(CO[C@H]2C(N)C[C@@H](N)[C@@H](OCCNCCCN)C2O)cc1` (stereo not given in full): the IC50 in assay [1] is above 50 µM. The same compound came in with a Kd in assay [2] of 27 µM.
The corresponding values for `CN(C)CCCNC(=O)CO[C@H]1C(O)[C@@H](OCSc2ccnc3cc(C(F)(F)F)ccc23)C(N)C[C@H]1N` (stereo not given in full) are above 50 µM and 241 µM.
In the case of `COc1ccc(CO[C@H]2C(N)C[C@@H](N)[C@@H](O)C2OCCNCCCN)cc1` (stereo not given in full), the IC50 in assay [1] is above 50 µM. Also, the equilibrium dissociation constant (Kd) in assay [2] is 10 µM.
Take `NCCCNCCOC1[C@@H](OCSc2ccnc3cc(C(F)(F)F)ccc23)C(N)C[C@@H](N)[C@H]1O` (stereo not given in full): the IC50 in assay [1] was determined as 2.1 µM. This compound had a Kd in assay [2] of 2 µM.
`NC[C@H]1O[C@H](O[C@H]2[C@H](O)[C@@H](O)[C@H](N)C[C@@H]2N)[C@H](N)[C@@H](O)[C@@H]1O` [NEAMINE]: the IC50 in assay [1] is above 50 µM. Moreover, the Kd in assay [2] stood at 5 µM.
On to `NC[C@@H]1O[C@H](O[C@H]2[C@@H](O)[C@H](O[C@@H]3[C@@H](O)[C@H](N)C[C@H](N)[C@H]3O[C@H]3O[C@H](CO)[C@@H](O)[C@H](O)[C@H]3N)O[C@@H]2CO)[C@H](N)[C@@H](O)[C@@H]1O` [PAROMOMYCIN], for which, in assay [1], the IC50 stood at 0.6 µM. In assay [2], this compound returned a Kd of 0.1 µM.
In assay [1], `NC1C[C@@H](N)[C@@H](O)C(O)[C@H]1OCSc1ccnc2cc(C(F)(F)F)ccc12` (stereo not given in full) registered an IC50 above 50 µM. In assay [2], this compound came in with a Kd of 35 µM.
`CN(C)CCCNC(=O)COC1[C@@H](OCSc2ccnc3cc(C(F)(F)F)ccc23)C(N)C[C@@H](N)[C@H]1O` (stereo not given in full) had an IC50 in assay [1] above 50 µM. This compound also showed a Kd in assay [2] of 88 µM.
